Measured values published in publication PMC5550883, “Binding of doxorubicin to Sorcin impairs cell death and increases drug resistance in cancer cells” (Cell Death & Disease, 2017).

Assays:
Sorcin [1] = molecular target: T1, Sorcin (Homo sapiens, UniProt P30626); test: SPR, immobilized Sorcin, one-site fit; format: binding
T1 construct: gene SRI; full-length wild type; immobilized by amine coupling for SPR; homodimer
T1 sequence (P30626 1-198): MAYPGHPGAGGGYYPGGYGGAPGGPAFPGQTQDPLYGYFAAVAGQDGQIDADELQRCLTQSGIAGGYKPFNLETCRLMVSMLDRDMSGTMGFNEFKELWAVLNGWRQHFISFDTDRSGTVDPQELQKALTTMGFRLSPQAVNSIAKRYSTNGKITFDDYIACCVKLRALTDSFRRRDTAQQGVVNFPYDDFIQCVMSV

[2] = molecular target: T2, Sorcin calcium-binding domain (SCBD) (Homo sapiens, UniProt P30626); test: intrinsic tryptophan/tyrosine fluorescence quenching titration (ex […] nm), two-site fit; conditions: Tris-HCl 10 mM pH 7.5, 0.5 uM EDTA, 25 C; stronger of two sites; unreliable (KD1 below protein concentration, large errors)
T2 construct: gene SRI; dimer
T2 sequence (P30626 32-198): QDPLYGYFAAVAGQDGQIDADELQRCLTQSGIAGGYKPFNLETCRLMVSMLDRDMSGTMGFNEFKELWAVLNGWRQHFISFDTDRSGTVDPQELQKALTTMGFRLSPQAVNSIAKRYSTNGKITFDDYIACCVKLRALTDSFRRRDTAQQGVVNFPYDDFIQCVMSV

Sorcin [3] = molecular target: T1, Sorcin; test: SPR (OneStep), immobilized Sorcin; format: binding; conditions: HEPES 20 mM pH 7.4, NaCl 150 mM, 2% DMSO, 25 C; CaCl2 or EDTA not told

Structure (SMILES)	Kd (Sorcin [3])	also measured
[NH2][Pt]([NH2])([Cl])[Cl] [cisplatin]	–	Kd (Sorcin [1]): 1.7 µM
COc1cccc2c1C(=O)c1c(O)c3c(c(O)c1C2=O)C[C@@](O)(C(=O)CO)C[C@@H]3O[C@H]1C[C@H](N)[C@H](O)[C@H](C)O1 [doxorubicin]	–	affinity constant [2]: 1.4 ± 1 nM
CC(=O)O[C@H]1C(=O)[C@@]2(C)[C@H]([C@H](OC(=O)c3ccccc3)[C@]3(O)C[C@H](OC(=O)[C@H](O)[C@@H](NC(=O)c4ccccc4)c4ccccc4)C(C)=C1C3(C)C)[C@]1(OC(C)=O)CO[C@@H]1C[C@@H]2O [paclitaxel]	Sorcin is able to bind doxorubicin, paclitaxel and vinblastine, with high affinity	–
CC[C@]1(O)C[C@@H]2CN(CCc3c([nH]c4ccccc34)[C@@](C(=O)OC)(c3cc4c(cc3OC)N(C)[C@H]3[C@@](O)(C(=O)OC)[C@H](OC(C)=O)[C@]5(CC)C=CCN6CC[C@]43[C@@H]65)C2)C1 [vinblastine]	Sorcin is able to bind doxorubicin, paclitaxel and vinblastine, with high affinity	–
